Experimental data published in publication PMC4304843, “Human Mitochondrial Hsp70 (Mortalin): Shedding Light on ATPase Activity, Interaction with Adenosine Nucleotides, Solution Structure and Domain Organization” (PLoS ONE, 2015).

Key:
[1] = target: T1, human mortalin (mtHsp70, GRP75, HspA9, PBP74) (Homo sapiens, UniProt P38646); assay: isothermal titration calorimetry; type: binding
T1 construct: monomeric SEC fraction, alkaline phosphatase treated

human Hsp70-1A = target: T2, human Hsp70-1A (Homo sapiens, UniProt P0DMV8); assay: ATPase, EnzChek phosphate assay, Michaelis-Menten fit; type: biochemical; details: TKP buffer without phosphate pH 7.5, 2 mM Mg2+, 37°C, no co-chaperone
T2 construct: gene HSPA1A; recombinant, expressed in E. coli BL21(DE3) as previously described
Text: ATPase, EnzChek phosphate assay, Michaelis-Menten fit on human Hsp70-1A

T1 sequence (P38646 47-679): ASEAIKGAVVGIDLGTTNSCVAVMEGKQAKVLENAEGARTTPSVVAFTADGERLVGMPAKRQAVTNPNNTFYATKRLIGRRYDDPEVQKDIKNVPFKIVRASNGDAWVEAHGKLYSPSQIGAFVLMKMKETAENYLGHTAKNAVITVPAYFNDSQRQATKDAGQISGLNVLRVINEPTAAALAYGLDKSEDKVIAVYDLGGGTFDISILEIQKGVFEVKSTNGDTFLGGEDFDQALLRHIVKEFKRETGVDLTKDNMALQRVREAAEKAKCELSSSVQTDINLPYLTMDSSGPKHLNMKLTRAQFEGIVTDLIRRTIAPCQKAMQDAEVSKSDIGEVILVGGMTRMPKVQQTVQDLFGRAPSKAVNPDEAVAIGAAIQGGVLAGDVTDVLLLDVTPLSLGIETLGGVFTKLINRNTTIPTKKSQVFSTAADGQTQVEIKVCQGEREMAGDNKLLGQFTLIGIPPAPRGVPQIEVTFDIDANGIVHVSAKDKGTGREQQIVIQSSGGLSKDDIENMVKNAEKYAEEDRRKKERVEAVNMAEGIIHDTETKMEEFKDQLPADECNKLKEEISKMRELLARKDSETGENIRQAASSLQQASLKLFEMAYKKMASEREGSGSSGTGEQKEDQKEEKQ
T2 sequence (P0DMV8 2-641): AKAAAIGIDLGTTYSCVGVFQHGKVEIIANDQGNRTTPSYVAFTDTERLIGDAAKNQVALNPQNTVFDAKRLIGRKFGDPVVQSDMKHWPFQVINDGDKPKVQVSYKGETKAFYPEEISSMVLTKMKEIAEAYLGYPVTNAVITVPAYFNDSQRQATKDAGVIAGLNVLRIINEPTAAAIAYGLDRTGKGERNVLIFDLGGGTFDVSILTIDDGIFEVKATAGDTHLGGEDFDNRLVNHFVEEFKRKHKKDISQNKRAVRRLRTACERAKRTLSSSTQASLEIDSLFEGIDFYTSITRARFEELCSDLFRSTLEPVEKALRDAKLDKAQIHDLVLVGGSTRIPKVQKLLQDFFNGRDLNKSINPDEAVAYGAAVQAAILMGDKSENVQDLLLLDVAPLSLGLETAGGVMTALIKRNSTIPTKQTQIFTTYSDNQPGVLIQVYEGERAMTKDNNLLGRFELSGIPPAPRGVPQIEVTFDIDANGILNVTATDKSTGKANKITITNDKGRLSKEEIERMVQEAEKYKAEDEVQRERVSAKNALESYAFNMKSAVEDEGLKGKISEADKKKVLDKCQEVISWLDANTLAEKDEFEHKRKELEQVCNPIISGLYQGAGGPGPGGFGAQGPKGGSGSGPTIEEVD

Km (human Hsp70-1A) | SMILES | Kd [1]
 | Nc1ncnc2c1ncn2[C@@H]1O[C@H](COP(=O)(O)OP(=O)(O)O)[C@@H](O)[C@H]1O [ADP] | 2200 ± 100 nM
270 ± 40 µM | Nc1ncnc2c1ncn2[C@@H]1O[C@H](COP(=O)(O)OP(=O)(O)OP(=O)(O)O)[C@@H](O)[C@H]1O [ATP] | 1100 ± 100 nM
